Results: the supplement of paper PMC10307832

Experiments:
Test in all cases: relative viability (nuclei count vs DMSO), 5 days (fraction); higher = more cells survive
Everolimus + Trametinib = compound: CO[C@H]1C[C@@H]2CC[C@@H](C)[C@@](O)(O2)C(=O)C(=O)N2CCCC[C@H]2C(=O)O[C@H]([C@H](C)C[C@@H]2CC[C@@H](OCCO)[C@H](OC)C2)CC(=O)[C@H](C)/C=C(\C)[C@@H](O)[C@@H](OC)C(=O)[C@H](C)C[C@H](C)/C=C/C=C/C=C/1C [Everolimus] + CC(=O)Nc1cccc(-n2c(=O)n(C3CC3)c(=O)c3c(Nc4ccc(I)cc4F)n(C)c(=O)c(C)c32)c1 [Trametinib] (partner 0.02 µM)
Summary of the method: (§1)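 The day after seeding in 1536-well plates, lung cancer cell lines were treated by pin tool with a single drug, or with a fixed anchor-drug dose together with five library-drug doses (not always all listed) in √10 steps. After 5 days, a combined fix-and-stain solution (final 0.05% Triton X-100, 1% formaldehyde, 1 ug/ml Hoechst) was added. Nuclei counted on 4× images gave relative viability as treated counts over vehicle counts, reported as the median of duplicate plates.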

Everolimus + Lapatinib = compound: CO[C@H]1C[C@@H]2CC[C@@H](C)[C@@](O)(O2)C(=O)C(=O)N2CCCC[C@H]2C(=O)O[C@H]([C@H](C)C[C@@H]2CC[C@@H](OCCO)[C@H](OC)C2)CC(=O)[C@H](C)/C=C(\C)[C@@H](O)[C@@H](OC)C(=O)[C@H](C)C[C@H](C)/C=C/C=C/C=C/1C [Everolimus] + CS(=O)(=O)CCNCc1ccc(-c2ccc3ncnc(Nc4ccc(OCc5cccc(F)c5)c(Cl)c4)c3c2)o1 [Lapatinib] (partner 2 µM)
Summary of the method: as §1

Everolimus + Phenformin = compound: CO[C@H]1C[C@@H]2CC[C@@H](C)[C@@](O)(O2)C(=O)C(=O)N2CCCC[C@H]2C(=O)O[C@H]([C@H](C)C[C@@H]2CC[C@@H](OCCO)[C@H](OC)C2)CC(=O)[C@H](C)/C=C(\C)[C@@H](O)[C@@H](OC)C(=O)[C@H](C)C[C@H](C)/C=C/C=C/C=C/1C [Everolimus] + N=C(N)NC(=N)NCCc1ccccc1 [Phenformin] (partner 250 µM)
Summary of the method: as §1

Everolimus + Olaparib = compound: CO[C@H]1C[C@@H]2CC[C@@H](C)[C@@](O)(O2)C(=O)C(=O)N2CCCC[C@H]2C(=O)O[C@H]([C@H](C)C[C@@H]2CC[C@@H](OCCO)[C@H](OC)C2)CC(=O)[C@H](C)/C=C(\C)[C@@H](O)[C@@H](OC)C(=O)[C@H](C)C[C@H](C)/C=C/C=C/C=C/1C [Everolimus] + O=C(c1cc(Cc2n[nH]c(=O)c3ccccc23)ccc1F)N1CCN(C(=O)C2CC2)CC1 [Olaparib] (partner 8 µM)
Summary of the method: as §1

| Cell Line | relative viability (Everolimus + Trametinib; first compound 0.01 µM) | relative viability (Everolimus + Trametinib; first compound 0.03162 µM) | relative viability (Everolimus + Trametinib; first compound 0.1 µM) | relative viability (Everolimus + Trametinib; first compound 0.3162 µM) | relative viability (Everolimus + Trametinib; first compound 1 µM) | relative viability (Everolimus + Lapatinib; first compound 0.01 µM) | relative viability (Everolimus + Lapatinib; first compound 0.03162 µM) | relative viability (Everolimus + Lapatinib; first compound 0.1 µM) | relative viability (Everolimus + Lapatinib; first compound 0.3162 µM) | relative viability (Everolimus + Lapatinib; first compound 1 µM) | relative viability (Everolimus + Phenformin; first compound 0.01 µM) | relative viability (Everolimus + Phenformin; first compound 0.03162 µM) | relative viability (Everolimus + Phenformin; first compound 0.1 µM) | relative viability (Everolimus + Phenformin; first compound 0.3162 µM) | relative viability (Everolimus + Phenformin; first compound 1 µM) | relative viability (Everolimus + Olaparib; first compound 0.01 µM) | relative viability (Everolimus + Olaparib; first compound 0.03162 µM) | relative viability (Everolimus + Olaparib; first compound 0.1 µM) | relative viability (Everolimus + Olaparib; first compound 0.3162 µM) | relative viability (Everolimus + Olaparib; first compound 1 µM) |
| --- | --- | --- | --- | --- | --- | --- | --- | --- | --- | --- | --- | --- | --- | --- | --- | --- | --- | --- | --- | --- |
| NCI-H1437 | 0.383 | 0.348 | 0.374 | 0.313 | 0.249 | 0.642 | 0.55 | 0.464 | 0.508 | 0.417 | 0.557 | 0.282 | 0.293 | 0.299 | 0.29 | 0.632 | 0.622 | 0.588 | 0.596 | 0.598 |
| UMC-11 | 0.267 | 0.299 | 0.252 | 0.348 | 0.295 | 0.373 | 0.326 | 0.306 | 0.433 | 0.438 | 0.281 | 0.249 | 0.261 | 0.294 | 0.269 | 0.362 | 0.273 | 0.223 | 0.239 | 0.29 |
| 201T | 0.658 | 0.632 | 0.586 | 0.595 | 0.57 | 0.911 | 1 | 0.852 | 0.882 | 0.938 | 0.499 | 0.443 | 0.406 | 0.425 | 0.484 | 0.716 | 0.802 | 0.724 | 0.786 | 0.783 |
| NCI-H358 | 0.105 | 0.102 | 0.114 | 0.129 | 0.109 | 0.309 | 0.338 | 0.377 | 0.345 | 0.295 | 0.208 | 0.25 | 0.227 | 0.234 | 0.298 | 0.424 | 0.384 | 0.303 | 0.325 | 0.389 |
| NCI-H1650 | 0.48 | 0.489 | 0.437 | 0.481 | 0.58 | 0.615 | 0.707 | 0.645 | 0.742 | 0.489 | 0.36 | 0.372 | 0.46 | 0.392 | 0.417 | 0.893 | 0.934 | 0.791 | 0.834 | 0.849 |
| LOU-NH91 | 0.626 | 0.695 | 0.667 | 0.612 | 0.623 | 0.553 | 0.56 | 0.58 | 0.615 | 0.546 | 0.636 | 0.596 | 0.609 | 0.541 | 0.584 | 0.744 | 0.829 | 0.789 | 0.788 | 0.777 |
| HOP-62 | 0.263 | 0.211 | 0.248 | 0.2 | 0.195 | 0.646 | 0.569 | 0.533 | 0.659 | 0.782 | 0.583 | 0.579 | 0.495 | 0.513 | 0.535 | 0.354 | 0.434 | 0.5 | 0.505 | 0.339 |
